Measured values from publication PMC13598332, “Selective activation of tetrodotoxin-sensitive sodium channels by AaH-II drives arrhythmogenic late Na^+ current in the heart” (Europace, 2026).
Where two headings read alike, the source gives them in different places.

Tests used:
[1] = tested on: adult rat ventricular cardiomyocytes; test: Calcium imaging (SCR events) in isolated rat cardiomyocytes; assay type: cell-based
Experimental: Eleven-week-old Wistar Han rats were euthanized by intraperitoneal (i.p.) injection of a lethal dose of pentobarbital (140 mg/kg, Euthasol®). Subsequently, the hearts were quickly excised and rinsed in cold calcium-free Tyrode solution with the following composition (in mM): 118 NaCl, 4.17 KCl, 1.2 MgSO4, 1.2 KH2PO4, 21 NaHCO3, 11 glucose, and 5 taurine, at pH 7.4. The aorta was promptly cannulated, and the hearts were perfused in a retrograde fashion with warm (37–38°C) Tyrode containing 1.25 mM CaCl2 to flush the coronary arteries of blood and then with a Tyrode solution supplemented with 1 mg/mL collagenase type 2 (Worthington Biochemical Corp, Lakewood, NJ) and 0.2 U.mL^−1 protease type XIV (Sigma, Poole, UK) during 15–20 min. Once enzymatic digestion is completed, ventricles were shredded into small pieces with surgical scissors in 0.5 mM Ca^2+ Tyrode solution, filtered through a 200-µm mesh, and then resuspended in 1 mM Ca^2+ Tyrode solution for 1 h at RT. Isolated cardiomyocytes were incubated in the dark with Fura-2-AM calcium probe (2 µM in 20% v/v DMSO; Life Technologies) for 15 min. Cardiomyocytes were then loaded onto the IonOptix system (IonOptix Corporation, U.S.A.) and perfused with warm (37°C) Tyrode solution. Cardiomyocytes were stimulated at 0.5 Hz using a MyoPacer field stimulator (20 V, 7 ms) to achieve steady state. Fura-2 fluorescence (F) at 510 nm was used to measure cytoplasmic Ca^2+ concentration variation by exciting with UV light at 340 and 380 nm. Cells were paced for 1 to 2 min, ensuring stabilization of the signals, and the effects of the peptides were measured at the end of a 5 min application time. 30-s-long periods were used as the unit duration (representing 15 Ca^2+ transients) during control and after the perfusion of the compound to count the number of arrhythmogenic transients.

isolated rat heart = test: Ex vivo cardiac electrophysiological recordings (Langendorff, MEA); conditions: for increase in repolarization area of ventricular local field potential: mean ± SEM
Experimental: Eleven-week-old Wistar-Han rats were first heparinized (heparin sodium, 0.5 U/g i.p.) and then euthanized by i.p. injection of 140 mg/kg pentobarbital (Euthasol®). Hearts were quickly excised and immersed in a cold modified Krebs-Henseleit solution (in mM): 116 NaCl, 5 KCl, 1.1 MgSO4, 7 H2O, 0.35 NaH2PO4, 27 NaHCO3, 10 glucose, and pH 7.4. The aorta was cannulated, and the hearts were perfused on a Langendorff system with warm (36.5–37.5°C) and oxygenated (95% O2/5% CO2) Krebs-Henseleit solution supplemented with 1.8 mM CaCl2, 1 mM lactate, and 0.2 mM pyruvate (control solution) at a constant flow rate of 12 mL/min. Once connected to the Langendorff perfusion system, hearts were perfused with control solution for 10 min to stabilize their activities. Electrical activity of the upper part of the right ventricle was assessed using a 64-electrode array (0.2-mm electrode diameter; 0.36-mm interelectrode distance) connected to an EMS64-USB-1002 amplifier. Single-lead ECG was acquired to monitor global cardiac electrical activity. Data were sampled at 10 kHz per channel and acquired by EMapRecord5 (Mappinglab, Oxford, UK). Data were obtained at baseline (2 min before compound perfusion) and during AaH-II* perfusion for 10 min at various concentrations. Data were analysed using EMapScope5 (Mappinglab, Oxford, UK). Activation times were determined as the point of maximal negative slope. All activation times were related to the timing of the first detected waveform and then used to draw activation maps. An average of three complexes was used for activation time and conduction velocity analyses, while interbeat interval was measured as the average of 10 consecutive intervals. The index of inhomogeneity was calculated as previously described.[23] Arrhythmias were quantified over a period of 2 min in control and after peptide perfusion.

[2] = tested on: adult rat ventricular myocytes; assay type: cell-based; conditions: HP −120 mV, 1-s pulse to −20 mV
hNav1.3 = hNav1.3 (Homo sapiens, UniProt Q9NY46); assay type: cell-based
hNav1.6 = hNav1.6 (Homo sapiens, UniProt Q9UQD0); assay type: cell-based
hNav1.6, sequence (Q9UQD0 other isoform, or with tags, fused parts or gaps): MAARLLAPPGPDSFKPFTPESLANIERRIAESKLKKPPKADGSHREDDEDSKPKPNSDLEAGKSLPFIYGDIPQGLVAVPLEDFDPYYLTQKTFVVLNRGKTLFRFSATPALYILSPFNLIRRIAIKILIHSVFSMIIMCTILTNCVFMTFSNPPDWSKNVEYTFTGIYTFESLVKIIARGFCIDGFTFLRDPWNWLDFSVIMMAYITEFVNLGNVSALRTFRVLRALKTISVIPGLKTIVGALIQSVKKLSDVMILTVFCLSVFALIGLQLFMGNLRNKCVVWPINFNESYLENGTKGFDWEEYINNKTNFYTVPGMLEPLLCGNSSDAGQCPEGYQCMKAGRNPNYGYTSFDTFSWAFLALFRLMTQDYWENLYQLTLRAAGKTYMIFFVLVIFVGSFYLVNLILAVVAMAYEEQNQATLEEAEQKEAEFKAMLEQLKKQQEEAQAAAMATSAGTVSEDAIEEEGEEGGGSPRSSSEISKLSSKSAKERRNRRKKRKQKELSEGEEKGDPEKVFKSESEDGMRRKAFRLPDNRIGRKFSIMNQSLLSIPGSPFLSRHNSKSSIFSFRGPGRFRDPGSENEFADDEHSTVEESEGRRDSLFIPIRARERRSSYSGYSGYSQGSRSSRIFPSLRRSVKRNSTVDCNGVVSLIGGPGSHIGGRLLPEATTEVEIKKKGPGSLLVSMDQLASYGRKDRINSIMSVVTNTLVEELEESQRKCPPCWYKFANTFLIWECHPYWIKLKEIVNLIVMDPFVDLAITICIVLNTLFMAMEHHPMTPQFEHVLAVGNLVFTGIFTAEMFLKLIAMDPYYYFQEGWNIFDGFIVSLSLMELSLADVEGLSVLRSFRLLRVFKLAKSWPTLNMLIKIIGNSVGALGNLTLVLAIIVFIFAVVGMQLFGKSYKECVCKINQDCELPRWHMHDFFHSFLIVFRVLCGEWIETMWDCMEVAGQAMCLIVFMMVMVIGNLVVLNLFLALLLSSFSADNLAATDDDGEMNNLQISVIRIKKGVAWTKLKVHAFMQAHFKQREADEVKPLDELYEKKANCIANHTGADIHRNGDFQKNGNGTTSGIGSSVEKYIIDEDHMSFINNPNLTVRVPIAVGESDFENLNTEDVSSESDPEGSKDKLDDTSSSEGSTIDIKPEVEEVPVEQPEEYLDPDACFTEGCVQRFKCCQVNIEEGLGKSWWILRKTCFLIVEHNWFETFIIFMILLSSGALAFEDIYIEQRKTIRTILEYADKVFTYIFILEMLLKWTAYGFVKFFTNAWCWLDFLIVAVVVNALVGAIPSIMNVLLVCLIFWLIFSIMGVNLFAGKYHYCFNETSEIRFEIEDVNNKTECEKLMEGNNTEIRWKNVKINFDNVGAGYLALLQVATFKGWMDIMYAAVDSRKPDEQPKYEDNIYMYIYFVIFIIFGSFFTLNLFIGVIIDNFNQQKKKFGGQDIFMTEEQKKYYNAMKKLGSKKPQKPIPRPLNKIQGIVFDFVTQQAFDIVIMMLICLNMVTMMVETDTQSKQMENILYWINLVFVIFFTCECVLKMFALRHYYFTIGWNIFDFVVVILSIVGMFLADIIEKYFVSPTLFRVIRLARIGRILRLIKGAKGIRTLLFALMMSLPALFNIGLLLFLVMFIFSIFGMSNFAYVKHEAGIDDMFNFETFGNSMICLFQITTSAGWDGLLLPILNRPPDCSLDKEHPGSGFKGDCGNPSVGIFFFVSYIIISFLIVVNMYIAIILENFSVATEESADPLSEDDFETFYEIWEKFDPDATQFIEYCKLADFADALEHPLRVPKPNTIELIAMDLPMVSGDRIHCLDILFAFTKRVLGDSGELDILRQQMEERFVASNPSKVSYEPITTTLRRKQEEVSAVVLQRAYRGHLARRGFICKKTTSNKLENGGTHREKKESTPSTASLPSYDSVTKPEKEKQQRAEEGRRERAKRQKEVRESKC

hNav1.2 = hNav1.2 (Homo sapiens, UniProt Q99250); assay type: cell-based
hNav1.2, sequence (Q99250 whole entry): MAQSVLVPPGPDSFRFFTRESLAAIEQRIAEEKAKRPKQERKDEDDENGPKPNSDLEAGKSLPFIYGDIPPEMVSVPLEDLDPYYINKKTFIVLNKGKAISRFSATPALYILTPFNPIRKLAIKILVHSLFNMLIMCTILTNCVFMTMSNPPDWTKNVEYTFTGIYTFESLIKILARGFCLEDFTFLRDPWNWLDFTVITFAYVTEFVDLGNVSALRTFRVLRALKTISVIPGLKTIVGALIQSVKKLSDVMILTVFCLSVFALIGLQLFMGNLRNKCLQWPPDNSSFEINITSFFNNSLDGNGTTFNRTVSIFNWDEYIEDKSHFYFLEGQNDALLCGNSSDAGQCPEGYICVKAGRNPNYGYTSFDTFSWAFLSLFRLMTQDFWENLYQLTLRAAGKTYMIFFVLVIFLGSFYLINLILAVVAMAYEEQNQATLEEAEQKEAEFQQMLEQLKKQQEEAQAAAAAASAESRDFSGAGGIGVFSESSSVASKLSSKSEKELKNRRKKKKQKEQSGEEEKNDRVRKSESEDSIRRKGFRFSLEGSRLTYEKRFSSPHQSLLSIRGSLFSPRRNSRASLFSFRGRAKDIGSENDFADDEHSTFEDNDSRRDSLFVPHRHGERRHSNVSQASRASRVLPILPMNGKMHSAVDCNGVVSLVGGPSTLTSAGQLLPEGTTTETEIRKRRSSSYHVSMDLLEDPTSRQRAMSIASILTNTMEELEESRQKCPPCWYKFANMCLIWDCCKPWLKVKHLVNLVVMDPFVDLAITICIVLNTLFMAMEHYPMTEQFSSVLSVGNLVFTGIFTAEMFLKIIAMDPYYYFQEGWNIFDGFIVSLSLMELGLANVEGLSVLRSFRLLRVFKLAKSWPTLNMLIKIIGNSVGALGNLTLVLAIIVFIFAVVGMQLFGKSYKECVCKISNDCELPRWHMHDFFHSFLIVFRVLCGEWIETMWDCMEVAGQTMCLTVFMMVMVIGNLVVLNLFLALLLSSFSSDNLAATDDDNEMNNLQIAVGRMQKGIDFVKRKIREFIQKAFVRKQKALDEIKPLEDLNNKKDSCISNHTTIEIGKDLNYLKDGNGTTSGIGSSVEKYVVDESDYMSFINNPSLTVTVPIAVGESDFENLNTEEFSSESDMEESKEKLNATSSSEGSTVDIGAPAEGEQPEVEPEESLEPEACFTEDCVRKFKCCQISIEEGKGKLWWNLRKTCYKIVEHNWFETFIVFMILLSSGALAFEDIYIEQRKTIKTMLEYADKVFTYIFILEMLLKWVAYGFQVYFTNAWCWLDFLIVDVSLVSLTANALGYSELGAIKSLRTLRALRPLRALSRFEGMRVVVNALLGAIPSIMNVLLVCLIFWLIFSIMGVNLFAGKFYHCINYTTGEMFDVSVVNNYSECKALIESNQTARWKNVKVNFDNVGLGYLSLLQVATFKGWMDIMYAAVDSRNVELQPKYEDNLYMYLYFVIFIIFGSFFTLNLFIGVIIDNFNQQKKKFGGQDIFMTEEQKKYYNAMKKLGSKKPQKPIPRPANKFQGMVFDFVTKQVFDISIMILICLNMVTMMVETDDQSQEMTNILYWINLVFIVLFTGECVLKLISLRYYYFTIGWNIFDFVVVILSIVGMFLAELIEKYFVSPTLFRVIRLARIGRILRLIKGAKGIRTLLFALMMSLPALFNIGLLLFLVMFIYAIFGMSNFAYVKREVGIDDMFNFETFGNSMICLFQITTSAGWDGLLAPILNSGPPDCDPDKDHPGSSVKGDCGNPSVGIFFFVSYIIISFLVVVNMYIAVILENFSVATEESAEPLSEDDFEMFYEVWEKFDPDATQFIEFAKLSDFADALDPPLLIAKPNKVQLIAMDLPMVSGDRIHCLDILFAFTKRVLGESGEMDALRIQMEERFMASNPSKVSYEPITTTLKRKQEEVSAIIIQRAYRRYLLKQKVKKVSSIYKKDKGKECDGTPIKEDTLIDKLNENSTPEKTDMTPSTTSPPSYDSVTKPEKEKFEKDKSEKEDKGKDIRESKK

hNav1.4 = hNav1.4 (Homo sapiens, UniProt P35499); assay type: cell-based
[3] = representative traces, test 0 mV

## CC[C@H](C)[C@H](NC(=O)[C@H](Cc1ccc(O)cc1)NC(=O)CNC(=O)[C@H](CC(=O)O)NC(=O)[C@H](CCCCN)NC(=O)[C@@H](N)C(C)C)C(=O)N[C@H](C(=O)N[C@@H](CC(=O)O)C(=O)N[C@@H](CC(=O)O)C(=O)N[C@H](C(=O)N[C@@H](CC(N)=O)C(=O)N[C@H]1CSSC[C@@H](C(=O)N[C@@H](Cc2c[nH]cn2)C(N)=O)NC(=O)[C@H](CCCCN)NC(=O)CNC(=O)[C@@H]2CCCN2C(=O)CNC(=O)[C@H](CCCCN)NC(=O)[C@H]([C@@H](C)O)NC(=O)[C@H](CCCNC(=N)N)NC(=O)[C@H](C(C)C)NC(=O)[C@H](Cc2c[nH]cn2)NC(=O)[C@H](CC(=O)O)NC(=O)[C@@H]2CCCN2C(=O)[C@H](CC(C)C)NC(=O)[C@H](CCCCN)NC(=O)[C@H](Cc2ccc(O)cc2)NC(=O)[C@@H]2CSSC[C@@H]3NC(=O)[C@H](CCC(=O)O)NC(=O)[C@H](CCC(=O)O)NC(=O)[C@H](CC(N)=O)NC(=O)[C@@H]4CSSC[C@H](NC(=O)[C@H](C)NC(=O)[C@H](CC(N)=O)NC(=O)CNC(=O)[C@H](Cc5ccc(O)cc5)NC(=O)[C@@H]5CCCN5C(=O)[C@H](CO)NC(=O)[C@H](C)NC(=O)[C@H](Cc5c[nH]c6ccccc56)NC(=O)[C@H](CCC(N)=O)NC(=O)[C@H](CSSC[C@H](NC(=O)[C@H](Cc5ccccc5)NC(=O)[C@H](Cc5ccc(O)cc5)NC(=O)[C@H]([C@@H](C)O)NC1=O)C(=O)NCC(=O)N[C@@H](CCCNC(=N)N)C(=O)N[C@@H](CC(N)=O)C(=O)N[C@@H](C)C(=O)N[C@@H](Cc1ccc(O)cc1)C(=O)N4)NC(=O)[C@H](Cc1ccc(O)cc1)NC(=O)CNC(=O)[C@H](CO)NC(=O)[C@H](CCC(=O)O)NC(=O)CNC(=O)[C@H](CCCCN)NC(=O)[C@H](CC(C)C)NC(=O)[C@H](CCCCN)NC(=O)[C@H]([C@@H](C)O)NC3=O)C(=O)N[C@@H](Cc1ccc(O)cc1)C(=O)N2)C(C)C)C(C)C [AaH-II*]
[1]; 0.1 nM AaH-II*
  average frequency of SCR events: 14 SCR/min
[1]; 0.1 nM peptide, 0.5 Hz pacing, 37°C, 5 min application
  cells presenting SCR events (SCR cells / cells): 13 out of 23
[1]; 1 or 3 nM AaH-II*
  calcium transient amplitude and time to peak: slightly reduce the amplitude of the calcium transients and slow the time to peak
Isolated rat heart; 0.1 nM
  increase in repolarization area of ventricular local field potential: 40.3 ± 8.0%
Isolated rat heart; 1 nM AaH-II*
  arrhythmogenic hearts (hearts with arrhythmias / hearts): 5/7
Isolated rat heart; 1 nM
  increase in repolarization area of ventricular local field potential: 140.6 ± 43.0%
Isolated rat heart; 10 nM
  activation time: significantly increases activation time
Isolated rat heart; 10 nM AaH-II*
  arrhythmogenic hearts (hearts with arrhythmias / hearts): 6/7
Isolated rat heart; 10 nM, MEA on right ventricle, 10 min perfusion
  ventricular bradycardia (rhythm reduction): 1.9 fold
Isolated rat heart; 0.1 and 1 nM
  cardiac conduction in the right ventricle: do not affect conduction
Isolated rat heart; 0.1 and 1 nM, MEA on right ventricle, 10 min perfusion
  ventricular interbeat interval: no effect on the interbeat interval
[2]; 0.1 nM, n = 6 cardiomyocytes
  AUC and INaL at 1 s depolarization: half of the cells responded with an increased AUC and INaL
  peak current amplitude: None of the cells witnessed an increase in peak current amplitude
[2]; 10 nM
  AUC and INaL at 1 s depolarization: significant increase in AUC and INaL in all cells recorded
hNav1.3; 10 nM
  INaL after 1 s depolarization: maintained INaL after 1 s pulse
  shift in voltage-dependence of activation: large AaH-II*-triggered hyperpolarizing shift in voltage-dependence of activation
hNav1.3; [3]
  concentration at which INaL is triggered / becomes noticeable: 0.1 nM
hNav1.6; 10 nM AaH-II* applied after 100 nM TTX
  activation of hNav1.6 current incl. INaL after TTX block: failed to activate any form of current
hNav1.6; hNav1.6, 10 nM
  INaL after 1 s depolarization: maintained INaL after 1 s pulse
  shift in voltage-dependence of activation: large AaH-II*-triggered hyperpolarizing shift in voltage-dependence of activation
hNav1.6; hNav1.6, representative traces, test 0 mV
  concentration at which INaL is triggered / becomes noticeable: 0.1 nM
hNav1.2; above 1 nM
  hNav1.2 peak current inhibition: not observed
hNav1.2; hNav1.2, 10 nM
  INaL after 1 s depolarization: significant INaL current at 1 s depolarization
  shift in voltage-dependence of activation: lacked a significant shift in voltage-dependence of activation
hNav1.2; hNav1.2, representative traces, test 0 mV
  concentration at which INaL is triggered / becomes noticeable: 0.1 nM
hNav1.4; 10 nM
  INaL after 1 s depolarization: lack of effects of AaH-II* on those two parameters
  shift in voltage-dependence of activation: lack of effects of AaH-II* on those two parameters
hNav1.4; highest effective AaH-II* concentration
  maximal INaL stimulation (maximal AUC): six
hNav1.4; [3]
  concentration at which INaL is triggered / becomes noticeable: 0.3 nM
